In patent US4649203A, “Ketoalkylphospholipids” (Takeda Chemical Industries, Ltd., priority 1983, dated 1987):
Values after ≈ are worked out from the molar mass of the structure shown. Where two headings read alike, the source gives them in different places.

Experiments:
[1] = system: sarcoma 180 cells; assay: Antitumor activity, sarcoma 180, drug given 4 days before inoculation (Test Examples 1 and 7); format: in vivo, ICR mice; conditions: for Number of surviving animals/Number of animals tested: 47th day, conditions of Test Example 1; for life span prolonging ratio (T/C): ICR mice, 1 mg/mouse, 4 days before i.p. inoculation of 1×10^5 sarcoma 180 cells
Experimental: Four days later, 1×10^5 sarcoma 180 cells were inoculated intraperitoneally into each mouse. […] The compounds of Examples 1, 4 and 6 were tested under the same conditions as Test Example 1. The value of the number of surviving animals represents the number of animals which survived on the 47th day.

[2] = system: sarcoma 180 cells; assay: Antitumor activity, sarcoma 180, drug given after inoculation (Test Examples 2, 3 and 8); format: in vivo, ICR mice; conditions: for Number of surviving animals/Number of animals tested: 47th day, conditions of Test Example 2; for life span prolonging ratio (T/C): ICR mice, 0.33 mg/mouse at hour 1, day 1 and day 2 after i.p. sarcoma 180 inoculation
Description: ICR mice (5 animals per group) were intraperitoneally inoculated with 1×10^5 sarcoma 180 cells per mouse. […] The life span prolonging ratio as compared with the control (no drug treatment) group was 206. […] The life span prolonging ratio was 257. […] The value of the number of surviving animals represents the number of animals which survived on the 47th day.

[3] = system: Meth A sacoma cells; assay: Antitumor activity, Meth A sarcoma (Test Example 4); format: in vivo, Balb/C mice; conditions: 0.5 mg/mouse once daily for 5 days at site of inoculation; tumors weighed day 15
Experimental: Balb/C mice (5 animals per group) were each subcutaneously inoculated with 1×10^5 Meth A sacoma cells. Separately, a solution of the compound of Example 7 in physiological saline was administered to the mice at the site of inoculation in a dose of 0.5 mg/mouse once daily for 5 consecutive days starting from day 1 after tumor cell inoculation. On day 15, the tumor tissues were excised and weighed. The inhibition ratio as compared with the control group was 83%.

[4] = system: P388 leukemia cells; assay: Antitumor activity, P388 leukemia (Test Example 5); format: in vivo; conditions: CDF1 mice, 1 mg/mouse i.p. once per day for 14 days
Experimental: CDF1 mice (5 animals per group) were each intraperitoneally inoculated with 1×10^5 P388 leukemia cells. Separately, a solution of the compound of Example 7 in physiological saline was intraperitoneally administered to the mice in a dose of 1 mg/mouse once per day for 14 consecutive days starting from day 1 after tumor implantation. The life span prolonging ratio as compared with the control group was 140.

[5] = system: MM46 cells; assay: Antitumor activity, MM46 (Test Example 6); format: in vivo, C3H/He mice; conditions: 5 animals per group; 0.25 mg/mouse i.p. 4 days before and 4 days after inoculation; controls all died within 21 days
Experimental: The compound of Example 7 was intraperitoneally administered to C3H/He mice (5 animals per group) in a dose of 0.25 mg/mouse for 4 consecutive days.
On the 5th day, 1×10^4 MM46 cells were intraperitoneally inoculated into each mouse, and the compound of Example 7 was again administered intraperitoneally to the mice in a dose of 0.25 mg/mouse for 4 days starting from day 1 after inoculation.

[6] = system: washed PRP (platelets); assay: Action on platelets: platelet aggregation caused by test drug (Test Example 9); format: cell-based; conditions: 3×10^-5 M, rabbit washed PRP, 37° C.
Experimental: A blood sample was taken from a male rabbit using a syringe containing 3.15% citric acid (1 to 9 volumes of blood) as anticoagulant, and centrifuged at 1000 rpm and room temperature for 10 minutes to give platelet rich plasma (PRP). The PRP was further centrifuged at 1400 rpm for 15 minutes. The platelet pellet thus obtained was suspended in Ca^++ -free Tyrode (containing 0.25% of gelatin). A 250 μl portion of the thus-prepared washed PRP was stirred at 37° C. for 2 minutes, then 25 μl of 0.2-0.5 mM Ca^++ solution was added and the mixture was further stirred for 30 seconds. Thereafter, the test drug was added in an amount sufficient to make a concentration of 3×10^-5M. Platelet aggregation was measured using an aggregation meter (Rigaku Denki).

[7] = Toxicity testing, LD50 (Test Example 11); conditions: mouse, in vivo, ip; ICR mice, intraperitoneal, in physiological saline
Experimental: LD50 values were determined in ICR mice by intraperitoneally administering each test compound in the form of a solution in physiological saline.

[8] = system: blood pressure; conditions: rat, in vivo, iv
Experimental: Seven-week-old male Spraugue-Dawley rats (200-290 g) were anesthesized by intraperitoneal administration of 60 mg/kg of pentobarbital sodium and the left carotid artery (for blood pressure measurement) and left femoral vein (for intravenous drug administration) were cannulated.

[9] = system: PAF; assay: Anti-PAF activity, inhibition of PAF-induced platelet aggregation (Test Example 14); format: cell-based; conditions: Oryctolagus cuniculus, 3×10^-5 M, rabbit washed PRP, read-out: percentage inhibition of maximum aggregation due to PAF
Experimental: A blood sample was taken directly from a male rabbit using a syringe containing 3.15% citric acid (1 to 9 volumes of blood) as anticoagulant, and centrifuged at 1000 rpm and room temperature for 10 minutes to give platelet rich plasma (PRP). The PRP was further centrifuged at 1400 rpm for 15 minutes. The platelet pellet thus obtained was suspended in Ca^++ -free Tyrode (containing 0.25% of gelatin). A 250-μl portion of the thus-prepared washed PRP was stirred at 37° C. for 2 minutes, then 25 μl of 0.2-0.5 mM Ca^++ solution was added and the mixture was further stirred for 30 seconds. Thereafter, the compound of Example 8 was added to a concentration of 3×10^-5 M. Platelet aggregation was measured with an aggregation meter (Rigaku Denki). The activity of the compound of Example 8 as determined in terms of percentage inhibition based on the maximum light transmittance (maximum aggregation) due to PAF in the control PRP was 94%.

[10] = system: Tetrahymena pyriformis W; assay: Microprotozoal growth inhibiting activity, liquid dilution method (Test Example 13); format: cell-based; conditions: 28° C., 44-48 hours, pH 7.0
Experimental: The compounds given in Table 4 were tested for microprotozoal growth inhibiting activity (expressed in terms of MIC) in Tetrahymena pyriformis W by the liquid dilution method by cultivating said test microorganism in a test medium [20 g of Tryptose peptone (Difco), 1 g of yeast extract, 2 g of glucose, 1000 ml of distilled water, 10 ml of 1M phosphate buffer, pH 7.0] at 28° C. for 44-48 hours.

[11] = system: Pyricularia oryzae; assay: microbe, parasite or virus in culture; format: cell-based; conditions: read-out: MIC, Pyricularia oryzae (rice blast)
[12] = system: Botrytis cinerea; assay: Antifungal activity, serial dilution method; format: cell-based; conditions: 1% glucose bouillon agar, read-out: MIC, Botrytis cinerea (gray mold)
[13] = system: Sclerotinia sclerotiorum; assay: Antifungal activity, serial dilution method; format: cell-based; conditions: 1% glucose bouillon agar, read-out: MIC, Sclerotinia sclerotiorum (kidney bean stem rot)
[14] = Adverse effects (general statement)
[15] = system: platelets; conditions: Hanahan et al., Biochem. Biophys. Res. Commun., 99, 183 (1981); cited from earlier work
[16] = system: Diaporthe citri; assay: Antifungal activity, serial dilution method; format: cell-based; conditions: 1% glucose bouillon agar, read-out: MIC, Diaporthe citri (citrus melanose)
[17] = system: Elsinoe fawcetti; assay: Antifungal activity, serial dilution method; format: cell-based; conditions: 1% glucose bouillon agar; read-out: MIC, Elsinoe fawcetti (citrus scab)
[18] = system: Cercospora beticola; assay: Antifungal activity, serial dilution method; format: cell-based; conditions: read-out: MIC, Cercospora beticola (sugar beat leaf spot)

CCCCCCCCCCCCCCCC(=O)COCC(COP(=O)([O-])OCC[N+](C)(C)C)OC (centres unmarked) [Example 1, 3-(2-Oxoheptadecyloxy)-2-methoxypropyl 2-trimethylammonioethyl phosphate]
Number of surviving animals/Number of animals tested [1]: 0/5
life span prolonging ratio (T/C) [1]: 290
Number of surviving animals/Number of animals tested [2]: 0/5
life span prolonging ratio (T/C) [2]: 340

CCCCCCCCCCCCCCC(=O)COCC(COP(=O)([O-])OCC[N+](C)(C)C)OC (centres unmarked) [Example 4, 3-(2-Oxohexadecyloxy)-2-methoxypropyl 2-trimethylammonioethyl phosphate]
Number of surviving animals/Number of animals tested [1]: 0/5
life span prolonging ratio (T/C) [1]: 224
Number of surviving animals/Number of animals tested [2]: 0/5
life span prolonging ratio (T/C) [2]: 230

CCCCCCCCCCCCCCCCCCC(=O)COCC(COP(=O)([O-])OCC[N+](C)(C)C)OC (centres unmarked) [Example 6, 3-(2-Oxoeicosyloxy)-2-methoxypropyl 2-trimethylammonioethyl phosphate]
Number of surviving animals/Number of animals tested [1]: 1/5
life span prolonging ratio (T/C) [1]: 236
Number of surviving animals/Number of animals tested [2]: 0/5
life span prolonging ratio (T/C) [2]: 338

CCCCCCCCCCCCCCCCC(=O)COCC(COP(=O)([O-])OCC[N+](C)(C)C)OC (centres unmarked) [Example 7, 3-(2-Oxooctadecyloxy)-2-methoxypropyl 2-trimethylammonioethyl phosphate]
life span prolonging ratio (T/C) [1]: 180
life span prolonging ratio (T/C) [2]: 206
inhibition ratio (tumor weight) as compared with control group [3]: 83%
life span prolonging ratio as compared with the control group [4]: 140
animals survived on day 46 [5]: 4 animals
platelet aggregation (in words) [6]: did not cause aggregation at all
platelet aggregation (in words) ([6]; listed as drawing 39): No aggregation
LD50 [7]: > 150 mg/kg
Hypotensive action [duration] [8]: < 30 s
Hypotensive action ΔP [8]: -5 mmHg
blood pressure decrease (in words) [8]: no observable blood pressure decrease

CCCCCCCCCCCCCCCCC(=O)COCC(COP(=O)([O-])OCC[n+]1ccsc1)OC (centres unmarked) [Example 8, 3-(2-Oxooctadecyloxy)-2-methoxypropyl 2-thiazolioethyl phosphate]
life span prolonging ratio (T/C) [2]: 257
LD50 [7]: > 150 mg/kg
inhibition at 30 µM [9]: 94%
Hypotensive action [duration] [8]: < 30 s
Hypotensive action ΔP [8]: -3 mmHg
blood pressure decrease (in words) [8]: no observable blood pressure decrease

CCCCCCCCCCCCCCCCCCOCC(COP(=O)([O-])OCC[N+](C)(C)C)OC (centres unmarked) [compound (XIII), reference compound]
life span prolonging ratio (T/C) [1]: 170
LD50 [7]: 25 to 50 mg/kg
MIC [10]: 1 µg/mL (≈ 1.91 µM)
MIC [11]: 6.25 µg/mL (≈ 11.9 µM)
MIC [12]: 25 µg/mL (≈ 47.7 µM)
MIC [13]: > 100 µg/mL
adverse effects (in words) [14]: hypotensive activity and local irritation (necrosis) is also noted
Hypotensive action [duration] [8]: 270 s
Hypotensive action ΔP [8]: -43 to -75 mmHg
platelet aggregating activity (in words) [15]: platelet aggregating activity

CCCCCCCCCCCCCCCCC(=O)COCC(COP(=O)([O-])OCC[N+](C)(C)C)OC (centres unmarked) [drawing 44]
MIC [10]: 0.4 µg/mL (≈ 0.744 µM)

CCCCCCCCCCCCCCCCC(=O)COCC(COP(=O)([O-])OCC[n+]1ccsc1)OC (centres unmarked) [drawing 45]
MIC [10]: 1 to 2 µg/mL (≈ 1.77 to 3.55 µM)

CCCCCCCCCCCCCCCCC(=O)COCC(COP(=O)([O-])OCC[N+](C)(C)C)OC (centres unmarked) [drawing 49]
MIC [11]: 3.12 µg/mL (≈ 5.8 µM)
MIC [12]: 6.25 µg/mL (≈ 11.6 µM)
MIC [16]: 6.25 µg/mL (≈ 11.6 µM)
MIC [17]: 6.25 µg/mL (≈ 11.6 µM)
MIC [18]: 3.12 µg/mL (≈ 5.8 µM)
MIC [13]: 25 µg/mL (≈ 46.5 µM)

CCCCCCCCCCCCCCCCC(=O)COCC(COP(=O)([O-])OCC[n+]1ccsc1)OC (centres unmarked) [drawing 51]
MIC [11]: 3.12 µg/mL (≈ 5.53 µM)
MIC [12]: 100 µg/mL (≈ 177 µM)
MIC [16]: 12.5 µg/mL (≈ 22.2 µM)
MIC [17]: 12.5 µg/mL (≈ 22.2 µM)
MIC ([18]; 1% glucose bouillon agar): 12.5 µg/mL (≈ 22.2 µM)
MIC [13]: 25 µg/mL (≈ 44.3 µM)
